Experimental data reported in ChEMBL document CHEMBL4043168, “The design and SAR of a novel series of 2-aminopyridine based LRRK2 inhibitors” (Bioorg Med Chem Lett, 2017).
pIC50: −log10 of the molar value. Converted amounts (≈) assume the structure as drawn.

How the values were obtained:
[1] = biological target: T1, Leucine-rich repeat serine/threonine-protein kinase 2 (Homo sapiens, UniProt Q5S007); assay: Inhibition of recombinant human wild type GST-tagged LRRK2 (970 to 2527 residues) at 200 uM preincubated for 30 mins followed by fluorescein-LRRKtide substrate addition after 2 hrs by TR-FRET assay relative to control
T1 sequence (Q5S007 whole entry, the tested form may be a part): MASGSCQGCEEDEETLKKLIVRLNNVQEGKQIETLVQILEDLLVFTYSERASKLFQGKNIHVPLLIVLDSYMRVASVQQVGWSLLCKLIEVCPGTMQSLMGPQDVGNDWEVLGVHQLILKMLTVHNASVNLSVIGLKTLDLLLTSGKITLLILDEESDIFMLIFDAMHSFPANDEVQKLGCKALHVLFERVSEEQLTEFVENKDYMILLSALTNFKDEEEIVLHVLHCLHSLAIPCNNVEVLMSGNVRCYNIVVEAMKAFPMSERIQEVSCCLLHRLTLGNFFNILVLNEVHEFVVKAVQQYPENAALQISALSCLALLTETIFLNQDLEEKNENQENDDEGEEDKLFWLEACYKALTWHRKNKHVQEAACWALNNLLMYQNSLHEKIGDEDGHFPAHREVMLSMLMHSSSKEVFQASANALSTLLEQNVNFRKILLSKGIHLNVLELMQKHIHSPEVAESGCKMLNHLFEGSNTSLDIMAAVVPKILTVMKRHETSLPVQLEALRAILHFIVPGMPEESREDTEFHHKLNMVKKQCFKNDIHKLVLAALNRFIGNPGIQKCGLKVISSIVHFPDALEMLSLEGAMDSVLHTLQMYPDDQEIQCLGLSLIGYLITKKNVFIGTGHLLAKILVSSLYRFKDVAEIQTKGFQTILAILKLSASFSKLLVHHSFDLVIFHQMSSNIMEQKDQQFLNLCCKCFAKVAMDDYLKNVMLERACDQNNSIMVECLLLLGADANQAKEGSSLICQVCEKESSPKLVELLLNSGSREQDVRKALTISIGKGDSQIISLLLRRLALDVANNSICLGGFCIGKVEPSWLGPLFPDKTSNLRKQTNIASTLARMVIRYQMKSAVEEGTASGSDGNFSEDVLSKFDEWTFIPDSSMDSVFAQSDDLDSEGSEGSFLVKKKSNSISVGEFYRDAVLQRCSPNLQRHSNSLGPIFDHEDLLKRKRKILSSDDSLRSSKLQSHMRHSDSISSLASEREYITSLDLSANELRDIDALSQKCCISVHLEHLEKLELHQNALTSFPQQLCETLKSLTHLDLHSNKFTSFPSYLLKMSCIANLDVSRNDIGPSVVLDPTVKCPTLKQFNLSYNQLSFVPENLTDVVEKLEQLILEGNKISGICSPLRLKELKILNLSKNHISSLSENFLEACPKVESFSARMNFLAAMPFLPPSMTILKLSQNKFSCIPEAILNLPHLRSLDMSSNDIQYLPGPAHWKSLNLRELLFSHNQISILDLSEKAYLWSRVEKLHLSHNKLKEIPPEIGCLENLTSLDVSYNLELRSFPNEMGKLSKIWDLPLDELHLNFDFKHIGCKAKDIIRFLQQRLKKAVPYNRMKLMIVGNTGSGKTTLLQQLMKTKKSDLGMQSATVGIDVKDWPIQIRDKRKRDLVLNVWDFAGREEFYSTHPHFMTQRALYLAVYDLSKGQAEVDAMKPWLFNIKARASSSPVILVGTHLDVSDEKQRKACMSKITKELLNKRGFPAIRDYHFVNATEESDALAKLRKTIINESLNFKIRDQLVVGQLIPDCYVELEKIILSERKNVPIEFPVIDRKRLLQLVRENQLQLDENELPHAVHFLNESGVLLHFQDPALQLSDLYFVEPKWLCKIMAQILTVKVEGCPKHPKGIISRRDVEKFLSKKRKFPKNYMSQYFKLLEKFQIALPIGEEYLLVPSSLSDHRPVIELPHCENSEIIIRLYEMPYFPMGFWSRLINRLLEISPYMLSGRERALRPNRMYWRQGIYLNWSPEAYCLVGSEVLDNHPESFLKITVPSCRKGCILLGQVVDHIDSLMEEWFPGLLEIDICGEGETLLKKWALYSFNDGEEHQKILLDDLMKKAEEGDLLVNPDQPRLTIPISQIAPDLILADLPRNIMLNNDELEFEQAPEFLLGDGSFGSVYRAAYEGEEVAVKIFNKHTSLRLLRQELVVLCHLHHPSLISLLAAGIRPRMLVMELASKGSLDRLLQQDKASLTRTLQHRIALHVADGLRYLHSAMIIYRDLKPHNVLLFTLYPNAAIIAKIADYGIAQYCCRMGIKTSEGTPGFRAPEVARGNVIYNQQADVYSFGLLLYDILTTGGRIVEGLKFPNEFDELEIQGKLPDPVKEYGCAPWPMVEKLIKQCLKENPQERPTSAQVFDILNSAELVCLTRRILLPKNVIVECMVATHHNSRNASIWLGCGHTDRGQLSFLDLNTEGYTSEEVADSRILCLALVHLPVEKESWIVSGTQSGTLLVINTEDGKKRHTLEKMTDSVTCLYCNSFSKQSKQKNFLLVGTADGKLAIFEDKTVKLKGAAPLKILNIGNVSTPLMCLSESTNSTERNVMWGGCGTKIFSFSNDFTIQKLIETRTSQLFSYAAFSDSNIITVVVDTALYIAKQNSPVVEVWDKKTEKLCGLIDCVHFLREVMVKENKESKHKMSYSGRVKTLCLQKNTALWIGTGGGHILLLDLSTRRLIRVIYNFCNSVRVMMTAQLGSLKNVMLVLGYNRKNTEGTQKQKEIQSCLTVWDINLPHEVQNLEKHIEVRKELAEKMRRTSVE

[2] = biological target: Leucine-rich repeat serine/threonine-protein kinase 2 (Homo sapiens, UniProt Q5S007, G2019S)
Sequence of Leucine-rich repeat serine/threonine-protein kinase 2 (Homo sapiens, UniProt Q5S007, G2019S) (Q5S007 whole entry G2019S): as the sequence (Q5S007 whole entry, the tested form may be a part) above, with G2019S counted along it
Description: Inhibition of recombinant human LRRK2 (970 to 2527 residues) G2019S mutant expressed in baculovirus preincubated for 30 mins followed by fluorescein-LRRKtide substrate addition after 2 hrs by TR-FRET assay

[3] = tested on: Leucine-rich repeat serine/threonine-protein kinase 2 (Homo sapiens), Q5S007 [G2019S]; details: at 200 µM
Sequence of Leucine-rich repeat serine/threonine-protein kinase 2 (Homo sapiens), Q5S007 [G2019S] (Q5S007 whole entry G2019S, the tested form may be a part): as the sequence (Q5S007 whole entry, the tested form may be a part) above, with G2019S counted along it
Description: Inhibition of recombinant human LRRK2 (970 to 2527 residues) G2019S mutant expressed in baculovirus at 200 uM preincubated for 30 mins followed by fluorescein-LRRKtide substrate addition after 2 hrs by TR-FRET assay

[4] = biological target: T1, Leucine-rich repeat serine/threonine-protein kinase 2; assay: Inhibition of recombinant human wild type GST-tagged LRRK2 (970 to 2527 residues) at 30 uM preincubated for 30 mins followed by fluorescein-LRRKtide substrate addition after 2 hrs by TR-FRET assay relative to control
[5] = biological target: T1, Leucine-rich repeat serine/threonine-protein kinase 2
Description: Inhibition of recombinant human wild type GST-tagged LRRK2 (970 to 2527 residues) preincubated for 30 mins followed by fluorescein-LRRKtide substrate addition after 2 hrs by TR-FRET assay

[6] = biological target: T1, Leucine-rich repeat serine/threonine-protein kinase 2; assay: Inhibition of recombinant human wild type GST-tagged LRRK2 (970 to 2527 residues) at 22 uM preincubated for 30 mins followed by fluorescein-LRRKtide substrate addition after 2 hrs by TR-FRET assay relative to control
[7] = tested on: Leucine-rich repeat serine/threonine-protein kinase 2 (Homo sapiens), Q5S007 [G2019S]; details: at 40 µM
Description: Inhibition of recombinant human LRRK2 (970 to 2527 residues) G2019S mutant expressed in baculovirus at 40 uM preincubated for 30 mins followed by fluorescein-LRRKtide substrate addition after 2 hrs by TR-FRET assay

[8] = biological target: T1, Leucine-rich repeat serine/threonine-protein kinase 2; assay: Inhibition of recombinant human wild type GST-tagged LRRK2 (970 to 2527 residues) at 66.7 uM preincubated for 30 mins followed by fluorescein-LRRKtide substrate addition after 2 hrs by TR-FRET assay relative to control
[9] = Aqueous solubility of the compound in pH 7.4; type: physicochemical; details: aqueous medium
[10] = Efflux ratio of apparent permeability from basolateral to apical over apical to basolateral side in MDCK cells; type: ADME, cell-based, Canis lupus familiaris; details: dog
[11] = Intrinsic clearance in rat liver microsomes; type: ADME, microsome; details: read-out: CLH (converted)
[12] = Apparent permeability in MDCK cells; type: ADME, cell-based, Canis lupus familiaris; details: dog
[13] = Intrinsic clearance in human liver microsomes; type: ADME, microsome; details: read-out: CLH (converted)

SMILES	pIC50 [2]	pIC50 [5]	also measured
Cc1ccc(-c2cnc(N)c(-c3cn(C)cn3)c2)cc1	4.24		inhibition [1]: 60%
Cc1ccc(-c2cnc(N)c(-c3cnn(C)c3C)c2)cc1			inhibition [3]: 62%; inhibition [1]: 49%
Cn1cc(-c2cc(-c3ccc4c(ccn4C)c3)cnc2N)cn1	5.24		inhibition [4]: 64%
CCn1cc(-c2cc(-c3ccc(C)cc3)cnc2N)cn1	4.92	4.92	
CCc1nnc(-c2cc(-c3ccc4[nH]ccc4c3)cnc2N)o1	5.54		inhibition [6]: 77%
Cc1ccc(-c2cnc(N)c(-n3cc(C)nn3)c2)cc1	5.04		inhibition [4]: 70%
Cn1cc(-c2cc(-c3ccc4[nH]ccc4c3)cnc2N)cn1	4.89		inhibition [1]: 75%
Cn1ccc(-c2cc(-c3ccc4[nH]ccc4c3)cnc2N)n1			inhibition [7]: 65%; inhibition [1]: 48%
Nc1ncc(-c2ccc3[nH]ccc3c2)cc1-c1nnc(C2CC2)o1	5.80	5.89	
Cc1ccc(-c2cnc(N)c(-c3cn[nH]c3)c2)cc1	4.89		inhibition [8]: 72%
CCNc1nc(Nc2cc(F)c(C(=O)N3CCOCC3)cc2OC)ncc1C(F)(F)F	7.34	7.01	
Cc1ccc(-c2cnc(N)c(-c3nnc(C4CC4)o3)c2)cc1	5.66	5.64	
Cc1ccc(-c2cnc(N)c(-c3cnn(C)c3)c2)cc1	5.17	4.80	solubility [9]: 11 µg/mL (≈ 41.6 µM); efflux ratio [10]: 0.55; CLint scaled [11]: 283 mL/min/kg; Papp [12]: 16.9 ×10⁻⁶ cm/s; CLint scaled [13]: 100 mL/min/kg
Cc1ccc(-c2cnc(N)c(-c3cnc(C)o3)c2)cc1	4.96	4.62	
Cc1nnc(-c2cc(-c3ccc4[nH]ccc4c3)cnc2N)o1	5.44		
